Where two headings read alike, the source gives them in different places.
Key:
[1] = test system: lymphoblastoid cell lines of ASD phenotype 1 patients; assay: Energy production (NADH) in Biolog Phenotype Mammalian MicroArrays, phenotype 1 cells; type: cell-based, human; details: cells exposed to the factor; Figure 1 (AUC) and Table 1
Excerpt: The phenotype 1 cohort (Phi) selected far in vitro experiments was composed by 14 males and 1 female (ratio 14:1), with an age range of 2-17 years (average 7.7).
From all subjects, blood samples were collected and lymphoblastoid cell lines generated. Briefly, tubes containing anticoagulant citrate dextrose (ACD) were used to collect blood samples via venipuncture, in order to ensure that the blood cells remained metabolically active. The tubes were kept at room temperature and processed within 24 hours.
Cell lines were obtained by immortalization of lymphocytes from blood samples using Epstein-Barr virus.
Energy production of cells was measured using commercially available Phenotype Mammalian MicroArrays (PM-Ms, Biolog, Hayward, Calif., USA).
The compound in each well was designed to be used by the cells, either as the sole energy source or as the metabolic effector influencing the utilization of an energy source (α-D-glucose) added in the cell suspension. […] Before plating, cell viability and number were assessed utilizing a BioRad cell counter and a trypan blue dye. The concentration of live cells required for plating was 4×10^5 cells/mL, corresponding to 20,000 cells per well in a volume of 50 μL. […] Cells were incubated for 48 h at 37° C. in 5% CO2, using the modified Biolog IF-M1 medium.
The Biolog IF-M1 medium was modified for plates PM-M1 to M4 by adding the following to 100 mL of Biolog IF-M1: 1.1 mL of 100× penicillin/streptomycin solution, 0.18 mL of 200 mM glutamine (final concentration 0.3 mM), and 5.3 mL of Fetal Bovine Serum (FBS, final concentration 5%). For plates PM-M5 to M8, 5.5 mM α-D-glucose will be added in place of FBS.
During the 48-hour incubation, the only energy source the cells had was the chemical in the well. After this first incubation, Biolog Redox Dye Mix MB was added (10 μL/well) and the plates were incubated under the same conditions for an additional 24 hours. As the cells metabolized the energy source, tetrazolium dye in the media was reduced, producing a purple color according to the amount of NADH generated.
For the last 24 hours of the experiment, the plates were incubated in the Omnilog system, which collects optical density readings every 15 minutes, generating 96 data-points for each well. The system also elaborated the kinetic curve for the metabolic reaction in each well and extrapolated parameters such as slope, highest point, endpoint, area under the curve (AUC), and lag.
At the end of the 24-hour incubation, the plates were analyzed utilizing a microplate reader with readings at 590 and 750 nm. The first value (A590) indicated the highest absorbance peak of the redox dye and the second value (A750) gave a measure of the background noise. The relative absorbance (A590-750) was calculated per well.

ASD phenotype 2 patients = details: for Clinical significance (CGI-I): after 3 days of sulforaphane administration; for ADI-R-RI S score / ADI-R-C S score / ADI-R-SI S score: day 3 of challenge test, given as broccoli sprout extract as in example 3; for ADI-R-SI S score: B score 16
Protocol: The effects of sulforaphane containing Broccoli sprout extract was observed and quantified in 7 individuals suffering from ASD and previously classified as either phenotype 1 or phenotype 2 patients.
We describe a procedure consisting of an evaluation of patients with ASD prior and after administration of broccoli sprout extract. The extract was prepared from selected broccoli seeds known to have high yield of sulforaphane which were surface-disinfected and grown (sprouted) for 3 days in a commercial sprouting facility under controlled light and moisture conditions. A boiling water extract was prepared, filtered, cooled, and treated with the enzyme myrosinase (from daikon sprouts) to convert precursor glucosinolates to isothiocyanates. Behavioral evaluation of patients was performed prior, during and after administration of sulforaphane-containing broccoli sprout extract. Baseline evaluation of patients was performed using standard clinical endpoints (ADI-R subscales ADI-SI, ADI-C and ADI-RI).
Challenge regimen consisted of the administration of a Broccoli Sprout Extract dose corresponding to a total daily dosage of 4 μmol/kg of sulforaphane, administered in 3 doses over the course of the day.
The assessment of baseline scores and post challenge test scores was conducted by two experienced clinicians with extensive experience in conducting ASD clinical assessments, both of which separately rated the patients. In case of diverging scores in test subscales at baseline or after administration of the challenge test, the lowest severity score was retained. Assessment of clinical endpoints was performed at day 3 of administration of challenge test. Behavioral Outcome Measures: (primary efficacy endpoints): ABC, SRS; CGI-S, CGI-I and ADI-R (ADI-SI, ADI-C, ADI-RI).

humans = details: cited from earlier work
[2] = Example 4 Patient 1 (phenotype 2)
[3] = Example 4 Patient 2 (phenotype 2)

PDGF-AB: platelet-derived growth factor AB
production of NADH in ASD phenotype 1 cells compared to TDs and non-phenotype 1 cells [1]: no significant differences

C[S@@+]([O-])CCCCN=C=S [sulforaphane, 1-isothiocyanato-4R-(methylsulfinyl)butane]
Clinical significance (CGI-I) (ASD phenotype 2 patients; [2]): Very much improved | ADI-R-RI S score (ASD phenotype 2 patients; Example 4 Patient 1 (phenotype 2), B score 3): 3 | ADI-R-C S score (ASD phenotype 2 patients; Example 4 Patient 1 (phenotype 2), B score 12): 10 | ADI-R-SI S score (ASD phenotype 2 patients; [2]): 12 | Clinical significance (CGI-I) (ASD phenotype 2 patients; [3]): Very much improved | ADI-R-RI S score (ASD phenotype 2 patients; Example 4 Patient 2 (phenotype 2), B score 5): 4 | ADI-R-C S score (ASD phenotype 2 patients; Example 4 Patient 2 (phenotype 2), B score 11): 9 | ADI-R-SI S score (ASD phenotype 2 patients; [3]): 14 | tolerability of administration to humans (humans; humans): well tolerated | toxicity (humans; in vivo): low toxicity

IGF-I: insulin-like growth factor 1
production of NADH in ASD phenotype 1 cells compared to TDs and non-phenotype 1 cells [1]: no significant differences

hGH(Somatotropin): growth factor that selectively targets the PI3K-Akt-mTOR pathway
production of NADH in ASD phenotype 1 cells compared to TDs and non-phenotype 1 cells [1]: significantly reduced production of NADH

IL-1beta: Th1 cytokine
production of NADH in ASD phenotype 1 cells compared to TDs and non-phenotype 1 cells [1]: significantly lower levels of NADH

IL-6: Th1 cytokine
production of NADH in ASD phenotype 1 cells compared to TDs and non-phenotype 1 cells [1]: significantly lower levels of NADH

FGF-1(aFGF): growth factor that selectively targets the PI3K-Akt-mTOR pathway
production of NADH in ASD phenotype 1 cells compared to TDs and non-phenotype 1 cells [1]: significantly reduced production of NADH

From patent US11364311B2, “Method of identifying ASD phenotype 1 patients” (Stalicla S.A., priority 2017, dated 2022)
